Data reported in US8940788B2, “Anti-angiogenic composition containing macrolactin A and a derivative thereof as active ingredients” (Daewoo Pharmaceutical Ind. Co., Ltd., priority 2010, dated 2015).

How the values were obtained:
[1] = tested on: chorioallantoic membrane (CAM) neovascular formation induced by TNF-α; assay: CAM analysis of suppressive effect on angiogenesis, neovascular formation induced by TNF-α; assay type: in vivo, chicken; settings: TNF-α 20 ng/CAM; various concentrations of compound; three days after treatment
Protocol: (§1) In order to confirm an anti-angiogenic effect of the macrolactin compounds in in vivo test, chorioallantoic membrane (CAM) analysis was carried out (Nguyen M. et al., Microvascular Res., 47, pp. 31-40, 1994). 6±1 fertile eggs were used per group.
(§2) Fertile chicken eggs were cultured while maintaining the temperature of 37° C. and the relative humidity of 55%. On the third day of culture, a first small hole was made in the air sac part with a hypodermic needle (Green Cross Medical Corporation, Korea), and a second hole was made in the plat part of the fertile eggs to make a window.
(§3) The CAM was separated from the eggshell by expelling the air through the first hole in the air sac, and then the part was cut with a grinding wheel (Multipro 395JA, Dremel, Mexico) to make a window.
(§4) A Whatman filter disc #1 (Whatman, USA) was treated with 3 mg/ml of cortisone acetate and dried. The filter disc was treated with 10 μl of VEGF, TNF-α or IL-8 (20 ng/CAM).
(§5) Through the pre-made window, the filter disc was put on blood vessel, and then treated with various concentrations of MA, MMA or SMA which was dissolved in DMSO and diluted with PBS.
(§6) Three days after treatment, the CAM part with the filter disc was separated and washed with phosphate buffer solution. […]

[2] = tested on: Human fibrosarcoma cells (HT-1080); assay: Infiltration test of fibrosarcoma cells (suppressive effect on metastasis of cancer), transwell with Matrigel; assay type: cell-based; settings: 18 hours
Protocol: Human fibrosarcoma cells (HT-1080) were cultured in DMEM containing 10% fetal bovine serum (FBS) and 1% penicillin/streptomycin (PS) under the condition of 37° C. and 5% CO2. When the cells grew to fill 80% or more of the culture flask, they were subcultured at a ratio of 1:3 and used in this test. In order to confirm the suppressive effect of the macrolactin compounds on metastasis of cancer in in vitro experiments, an infiltration test of fibrosarcoma cells was carried out by using a 24-well transwell attached with a polycarbonate filter of […] pore size. Firstly, the bottom side of the filter was coated with Collagen Type I (0.5 mg/ml), and then the upper side of the filter was coated with Matrigel (1.5 mg/ml). After coating, the lower part of the insert was filled with a medium containing 5% FBS, and the upper part was filled with serum-free medium human fibrosarcoma cells (HT-1080) which were incubated for 18 hours in a cell incubator. The human fibrosarcoma cells infiltrated into the bottom side of the filter were fixed with methanol and then dyed with hematoxylin and eosin. The infiltrated cells were observed under a microscope, and 3 parts were randomly selected from each filter to take photographs and determine the number of cells (Kim, M. S. et al., Cancer Res., 63, pp. 5454-5461, 2003; Park, B. C. et al., Eur. J. Pharm., 567, pp. 193-197, 2007).

[3] = tested on: chorioallantoic membrane (CAM) neovascular formation induced by IL-8; assay: CAM analysis of suppressive effect on angiogenesis, neovascular formation induced by IL-8; assay type: in vivo, chicken; settings: IL-8 20 ng/CAM; various concentrations of compound; three days after treatment
Protocol: as §1, §2, §3, §4, §5, §6

[4] = tested on: chorioallantoic membrane (CAM) neovascular formation induced by VEGF; assay: CAM analysis of suppressive effect on angiogenesis, neovascular formation induced by VEGF; assay type: in vivo, chicken; settings: VEGF 20 ng/CAM; for suppression of neovascular formation caused by VEGF (number of blood vessel branches): various concentrations of compound, three days after treatment
Protocol: as §1, §2, §3, §4, §5
Three days after treatment, the CAM part with the filter disc was separated and washed with phosphate buffer solution. The photographs were taken by using a stereomicroscope (Leica, Wetzlar, Germany) and Image-Pro Plus software (Media Cybernetics; Silver Spring, Md., USA) to determine the number of bleed vessel branches and to analyze the data.
All data were represented as mean±standard error of mean, and the statistical analysis was done as one-way ANOVA by using GraphPad Prism 4 Software (San Diego, Calif., USA). Multiple comparisons between the differences of each group were made by using the NK (Newman-Keuls) method. When p-value was less than 0.05, the data were regarded as statistically significant.

Compound | suppression of neovascular formation caused by TNF-α (number of blood vessel branches) [1] | dose dependence of suppression of metastasis (infiltration) of fibrosarcoma cells induced by 5% FBS [2] | suppression of neovascular formation caused by IL-8 (number of blood vessel branches) [3] | suppression of neovascular formation caused by VEGF (number of blood vessel branches) [4] | suppressive effect on metastasis (infiltration) of fibrosarcoma cells induced by 5% FBS ([2]; compound 1 μM) | suppressive effect on metastasis (infiltration) of fibrosarcoma cells induced by 5% FBS ([2]; compound 5 μM) | dose dependence of suppression of neovascular formation caused by VEGF ([4]; various concentrations)
CC1CCC/C=C/C=C/[C@H](O)C[C@@H](O)C/C=C\C=C\[C@@H](O)C/C=C/C=C\C(=O)O1 (stereo partly drawn) [MA, macrolactin A] | strongly suppressed | in a dose-dependent way | strongly suppressed | strongly suppressed |  |  | 
C[C@@H]1CCC/C=C/C=C/[C@H](O)C[C@@H](O)C/C=C\C=C\[C@@H](OC(=O)CC(=O)O)C/C=C/C=C\C(=O)O1 [MMA, 7-O-malonyl macrolactin A] |  |  |  | strongly suppressed |  |  | 
C[C@@H]1CCC/C=C/C=C/[C@H](O)C[C@@H](O)C/C=C\C=C\[C@@H](OC(=O)CCC(=O)O)C/C=C/C=C\C(=O)O1 [SMA, 7-O-succinyl macrolactin A] | strongly suppressed | in a dose-dependent way | strongly suppressed | strongly suppressed | significant suppressive effect | superior suppressive effect on the metastasis comparable to that of batimastat | suppressed neovascular formation in a dose-dependent way
